Assay results published in US5420343A, “Derivatives of aromatic cyclic alkylethers” (G. D. Searle & Co., priority 1994, dated 1995).

How the values were obtained:
human COX-I = biological target: T1, human COX-I (Homo sapiens, UniProt P23219); assay: Human Enzyme Assay, COX-I (recombinant enzyme, PGE2 ELISA); format: biochemical; conditions: 10 μM arachidonic acid, 10-20 min pre-incubation
T1 construct: made in house; host or cells: SF9 insect cells, recombinant baculovirus (pVL1393); coding fragment from Caymen Chemical, Ann Arbor, Mich
T1 sequence (P23219 24-599): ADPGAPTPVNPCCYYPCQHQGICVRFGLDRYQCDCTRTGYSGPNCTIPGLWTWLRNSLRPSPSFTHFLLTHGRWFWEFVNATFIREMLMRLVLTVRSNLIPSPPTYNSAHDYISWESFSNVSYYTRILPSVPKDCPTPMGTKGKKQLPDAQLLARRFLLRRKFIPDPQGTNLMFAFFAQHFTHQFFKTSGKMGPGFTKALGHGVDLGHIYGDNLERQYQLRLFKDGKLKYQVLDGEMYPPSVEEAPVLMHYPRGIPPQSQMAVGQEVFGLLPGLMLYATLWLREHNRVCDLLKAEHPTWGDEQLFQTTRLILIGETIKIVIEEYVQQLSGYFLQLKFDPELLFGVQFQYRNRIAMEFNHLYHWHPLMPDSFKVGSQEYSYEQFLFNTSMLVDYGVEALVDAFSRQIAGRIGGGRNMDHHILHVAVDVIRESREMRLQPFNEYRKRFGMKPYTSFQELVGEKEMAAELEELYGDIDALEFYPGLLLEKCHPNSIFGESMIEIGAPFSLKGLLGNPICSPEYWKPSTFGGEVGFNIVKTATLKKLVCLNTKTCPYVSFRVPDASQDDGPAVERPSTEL
Description: (§1) The compounds of the invention are evaluated with respect to COX-I and COX-II activity in vitro using an enzyme based assay according to the following assay procedure.
(§2) A 2.0 kb fragment containing the coding region for either human or murine COX-I (Caymen Chemical, Ann Arbor, Mich.), or human or murine COX-II (Caymen Chemical, Ann Arbor, Mich.), was cloned into a BamH1 site of the baculovirus transfer vector pVL1393 (Invitrogen, Palo Alto, Calif.) to generate a baculovirus transfer vector. Recombinant baculoviruses were isolated by transfecting 4 μg of baculovirus transfer vector DNA into SF9 cells (2×10e8) (Invitrogen, Palo Alto, Calif.) along with 200 ng of linearized bacium by the phosphate method. See M. D. Summers et al., "A Manual of Methods for Baculovirus Vectors and Insect Cell Culture Procedure," TEXAS AGRICULTURE EXPERIMENTAL STATION BULLETIN, No. 1555 (1987), which is incorporated herein by reference. Recombinant viruses were purified by three rounds of plaque purification, and high titer (10e7-10e8 pfu/ml) stocks of virus were prepared. […]
(§3) COX activity was assayed as PGE2 formed/μg protein/time using an ELISA (Caymen Chemical, Ann Arbor, Mich.) to detect the prostaglandin E2 released. […] The PGE2 formed was measured by standard ELISA technology (Cayman Chemical, Ann Arbor, Mich.). […]

human COX-II = biological target: T2, human COX-II (Homo sapiens, UniProt P35354); assay: Human Enzyme Assay, COX-II (recombinant enzyme, PGE2 ELISA); format: biochemical; conditions: 10 μM arachidonic acid, 10-20 min pre-incubation
T2 construct: made in house; host or cells: SF9 insect cells, recombinant baculovirus (pVL1393); coding fragment from Caymen Chemical, Ann Arbor, Mich
T2 sequence (P35354 18-604): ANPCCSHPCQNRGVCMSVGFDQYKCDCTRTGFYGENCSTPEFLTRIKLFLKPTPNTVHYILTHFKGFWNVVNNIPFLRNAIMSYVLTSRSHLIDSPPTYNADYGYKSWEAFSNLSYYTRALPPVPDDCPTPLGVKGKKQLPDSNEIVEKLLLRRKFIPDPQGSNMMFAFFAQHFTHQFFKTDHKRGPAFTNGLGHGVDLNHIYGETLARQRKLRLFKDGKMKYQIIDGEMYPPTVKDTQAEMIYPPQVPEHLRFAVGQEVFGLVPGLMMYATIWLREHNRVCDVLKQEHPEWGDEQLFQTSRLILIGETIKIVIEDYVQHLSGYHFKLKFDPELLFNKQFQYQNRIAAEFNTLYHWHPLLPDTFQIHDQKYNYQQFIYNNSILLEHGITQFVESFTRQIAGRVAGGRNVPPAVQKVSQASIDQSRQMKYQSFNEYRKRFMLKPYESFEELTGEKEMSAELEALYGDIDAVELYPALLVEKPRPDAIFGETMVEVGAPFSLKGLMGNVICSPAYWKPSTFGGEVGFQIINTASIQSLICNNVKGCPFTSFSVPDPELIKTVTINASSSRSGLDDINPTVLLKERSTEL
Description: as §1, §2, §3

cellular COX-II = biological target: T3, cellular COX-II (Homo sapiens, UniProt P35354); assay: Cellular COX-II Assay (Cell Fibroblast Assay); format: cell-based; conditions: IL-1 beta stimulated human fetal dermal fibroblasts; 20 μM arachidonic acid; PGE2 by ELISA
T3 construct: stimulated human fetal dermal fibroblasts (HFDF, derived from primary cell cultures); endogenous in cells; host or cells: human fetal dermal fibroblasts (HFDF), primary culture, stimulated overnight with IL-1 beta
T3 sequence (P35354 18-604): T2 sequence (P35354 18-604)
Description: The results for this assay, as well as for the next assay (COX-II Cell Fibroblast Assay) are expressed in terms of COX-I or II activity as an IC50 value (50% inhibitory concentration), as defined as the amount of prostaglandin E2 (PGE2) formed per protein per time in response to the enzyme substrate arachidonic acid.
The compounds of the invention are evaluated with respect to the inhibition of cellular COX-II in vitro according to the following Cellular COX-II Assay (Cell Fibroblast Assay).
Inhibition of cellular COX-II by test compounds is determined using stimulated human fetal dermal fibroblasts (HFDF, derived from primary cell cultures). […] Supernatants are collected and Prostaglandin E2 (PGE2) production is measured by an enzyme-linked immunosorbent assay (ELISA; antibodies produced by Cayman Chemical Company, Ann Arbor, Mich.). […]
The procedure uses information for indomethacin and the rest of the plate in defining the minimum and maximum response. […] For the other compounds, if a response is measured which is less than the response for the unstimulated wells, then this response may be considered to be another estimate of a minimal response. […]

COX II enzyme = conditions: E. Meade et al., J. Biol. Chem. 268, 6610 (1993); cited from earlier work
[1] = Futaki et al., Gen. Pharmac. 24, 105 (1993); cited from earlier work
[2] = Futaki et al., Gen. Pharmac. 24, 105 (1993); cited from earlier work; remark: listed apart in the source

IC50 (human COX-I)	IC50 (human COX-II)	SMILES	also measured
> 100 µM	1.34 µM	CC(C)(C)c1cc(C[C@H]2CCC[C@H]2OCC(=O)O)cc(C(C)(C)C)c1 (relative stereo) [Example 7, (cis)-2-[[2-[3,5-bis(1,1-dimethylethyl) -phenylmethyl]cyclopentyl]oxy]-acetic acid]	–
> 100 µM	> 100 µM	CC(C)(C)c1cc(C[C@@H]2CCC[C@H]2OCC(=O)O)cc(C(C)(C)C)c1 (relative stereo) [Example 8, (trans)-2-[[2-[3,5-bis(1,1-dimethylethyl) -phenylmethyl]cyclopentyl]oxy]acetic acid]	IC50 (cellular COX-II): 0.002 µM
–	–	COc1ccc2cc(CC(=O)O)ccc2c1 [6-methoxy-2-napthylacetic acid]	selective inhibition of COX II enzyme (COX II enzyme): selectively inhibit the COX II enzyme
–	–	CS(=O)(=O)Nc1ccc([N+](=O)[O-])cc1OC1CCCCC1 [N-(2-cyclohexyloxy-4-nitrophenyl)methanesulfonamide]	gastric side effects [1]: lacks gastric side effects; anti-inflammatory activity [2]: anti-inflammatory
